# Assay: Storage color stability of resorcinol formulations with and without micronized TiO2 (chromameter CIE L*)
# Format: physicochemical
# Design: key: difference in CIE L* (lightness) values, with TiO2 minus without
# Details: 45° C. oven, glass amber jars, 0.2% micronized TiO2 (MT-100Z), resorcinol content 2.17 milli-M
# Protocol: In this experiment, the storage stability in terms of color change of resorcinol derivatives time was measured with and without the presence of metal oxides.
# The color stabilization of formulations of containing 4-substituted resorcinol derivatives by TiO2 was assessed by measuring the chromameter L* value (Luminance, or lightness) of the different formulations over time. A decrease in L* over time represents a darkening of the formulations as color develops from the white starting formulation due to decomposition of the resorcinol derivative. In Table 5 below, the ΔL value between formulations with and without TiO2 indicates the magnitude of color difference between the comparative samples. […] Thus, one can see that TiO2 has a large color-stabilizing effect, particularly on the formulations containing 4-substituted resorcinols.
# The cosmetic compositions of Examples 5 to 8 in the Table above were stored and tested for stability in terms of discoloration. The resorcinol and 4-substituted resorcinol derivatives in these examples had equal molar content, i.e., 2.17 milli-M. A comparative composition, example 8, was made by eliminating resorcinol or its derivatives from the compositions of examples 5 to 8. The product formulations were stored for 56 days in glass amber jars of 120 ml volume in an oven at 45° C.
# Procedure for Measuring CIE L*a*b* Color of Cosmetic Formulations
# A film is created by applying a composition evenly to an UV-Transparent quartz plate (4″×4⅛″×⅛″) with a spatula. An 8-path wet film applicator from Paul Gardner Company, Inc. with a 3″ path width is used. The applicator is manually drawn across the plate for a […] thickness.
# The plate is flipped over with the thin film facing the bench top and suspended 1½″ above a black benchtop (L*a*b* reading of the benchtop is L*=27.5, a*=0.5, b*=−0.6). Then a hand held Minolta CR10 chromameter is calibrated on a white Calibration Color tile (L 98.2, a 0.2, b 1.2). The chromameter is then placed on the top of the plate and three readings of the Commission Internationale de l'Eclairage (CIE) L*a*b* color system are taken. • L*=Black to white (luminance) from 0 to 100 [L*=0 represents Black] • a*=green to red from −60 to +60 • b*=blue to yellow from −60 to +60
# The formulation thin film L* values were used in the present analysis. For each data collection the average value for the three readings was used at 0, 14, 28, and 56 days.
Base-adjusted ΔL with TiO2 - ΔL without TiO2 for the resorcinol formulations (storage time 0 day),Base-adjusted ΔL with TiO2 - ΔL without TiO2 for the resorcinol formulations (storage time 14 days),Base-adjusted ΔL with TiO2 - ΔL without TiO2 for the resorcinol formulations (storage time 28 days),Base-adjusted ΔL with TiO2 - ΔL without TiO2 for the resorcinol formulations (storage time 56 days),Compound
0,12.0,4.6,7.6,"CCc1ccc(O)cc1O [4-Ethyl resorcinol, 4-ethyl resorcinol]"
0,7.7,0.1,3.7,"CCCCCCc1ccc(O)cc1O [4-Hexyl resorcinol, 4-hexyl resorcinol]"
0,0.9,−2,1.1,Oc1cccc(O)c1 [Resorcinol]

# Source: patent US6863897B2, “Stabilization of resorcinol derivatives in cosmetic compositions” (Unilever Home & Personal Care USA, division of Conopco, Inc., priority 2002, dated 2005)
